Source: US20240360194A1, “New Peptides as Potent and Selective GIP Receptor Agonists” (Sanofi, priority 2021, published 2024)
Values after ≈ are worked out from the molar mass of the structure shown. Numbered stars: 1 amine (or outer) side, 2 acyl side, 3 side chain; on linkers, the order of the positions; unused ones are H or OH. Square brackets hold non-standard residues; d marks the D form. Side chains are listed from the residue outwards. Peptide text beside a SMILES is read from it. * marks the point of attachment. C18 diacid = O=C(O)CCCCCCCCCCCCCCCCC(=O)*; γGlu = O=C(O)[C@H](CCC(=O)[*:2])N[*:1]; dIva = CC[C@@](C)(N)C(=O)O; AEEA = NCCOCCOCC(=O)O; Aib = CC(C)(N)C(=O)O

Tests used:
[1] = Pharmacokinetic evaluation in rats; assay type: in vivo; conditions: male, SD, rat, in vivo
Method: (§1) Compounds were administered in a suitable buffer system, e.g. PBS buffer solution at pH7.4 or DPBS solution at concentrations of 0.05, 0.1, 0.5 or 1 mg/ml depending on dose, species and administration volume. Male SD rats were dosed 0.25 mg/kg, 0.5 mg/kg or 1 mg/kg intravenously (i.v.) or subcutaneously (s.c.). Blood samples were collected after 0.08, 0.25, 0.5, 1, 2, 4, 8, 24, 32, and 48 h post i.v. application and 0.25, 0.5, 1, 2, 4, 8, 24, 32, and 48 h post s.c. application, respectively. Plasma samples were analysed after protein precipitation via liquid chromatography mass spectrometry (LC/MS). PK parameters and half-life were calculated using Phoenix-WinNonlin 8.1 using a non-compartmental model and linear trapezoidal interpolation calculation. Pharmacokinetic profiles were determined as described in Methods.

[2] = Chemical stability assessment (UHPLC-UV purity loss on storage in solution); assay type: physicochemical; conditions: Chemical stability buffer system A: 20 mM phosphate buffer pH 7.4; ~300 μM
Method: Purity of a peptide batch was determined through UHPLC/MS prior to chemical stability measurement. The target concentration was 300 μM pure compound. Solutions from solid samples were prepared in the following buffer systems with a concentration of ˜300 μM compound based on the previously determined % purity: • Chemical stability buffer system A) 20 mM phosphate buffer pH 7.4, • Chemical stability buffer system B) 8 mM phosphate buffer pH 7.4, 14 mg/ml propylene glycol, 5.5 mg/ml phenol • Chemical stability buffer system C) 100 mM phosphate buffer pH 7.4, 2.7 mg/ml m-cresol
Prepared solutions were filtered through […] pore size and filled into sterilized glass containers under laminar flow conditions.
Glass containers were stored for 28 days at 5 and 40° C. After this time, the samples were centrifuged for 15 min at 2500 RCF. Then 1.5 μl of the undiluted supernatant were analysed with UHPLC-UV.
The chemical stability was rated through the relative loss of purity calculated by the equation: […]
The purity is calculated as
The analytical methods used were Analytical UHPLC Method B or C.
Peptide samples were prepared in Chemical stability buffer system A or B and stability was assessed as described in Methods.

[3] = Solubility assessment (UHPLC-UV of supernatant, target 10 mg/ml); assay type: physicochemical; conditions: for Soluble amount: pH 7.4
In short: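 Peptides at 10 mg/ml (purity-corrected) in 100 mM phosphate pH 7.4, optionally with 2.7 mg/ml m-cresol; gentle agitation 1 h, then 5° C. overnight (24 h). Supernatant after 15 min centrifugation at 2500 RCF quantified by UHPLC-UV, with sequence-based extinction coefficients.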

[4] = Pharmacokinetic evaluation in mice; assay type: in vivo, female C57Bl/6 mice; conditions: female, C57Bl/6, mouse, in vivo
Method: as §1, with “Female C57Bl/6 mice” for “Male SD rats”, “The mice were sacrificed, and blood” for “Blood”

Compound	AUC(0-t) ([1]; iv, 0.25 mg/kg)	Cmax ([1]; iv, 0.25 mg/kg)	clearance ([1]; iv, 0.25 mg/kg)	half-life ([1]; iv, 0.25 mg/kg)	AUC(0-t) ([1]; sc, 0.5 mg/kg)	Cmax ([1]; sc, 0.5 mg/kg)	half-life ([1]; sc, 0.5 mg/kg)	Relative purity loss over 28 days at 40° C. [2]	solubility at 24 h ([3]; pH 7.4, Soluble amount)	AUC(0-t) ([4]; iv, 0.25 mg/kg)	Cmax ([4]; iv, 0.25 mg/kg)	clearance ([4]; iv, 0.25 mg/kg)	half-life ([4]; iv, 0.25 mg/kg)	AUC(0-t) ([4]; sc, 0.5 mg/kg)	Cmax ([4]; sc, 0.5 mg/kg)	half-life ([4]; sc, 0.5 mg/kg)	other results
CC[C@H](C)[C@H](NC(=O)[C@H](Cc1ccccc1)NC(=O)[C@H](CCC(=O)O)NC(=O)[C@H](CCC(=O)O)NC(=O)[C@H](CCC(N)=O)NC(=O)[C@H](Cc1c[nH]cn1)NC(=O)[C@@H](NC(=O)[C@H](CCCNC(=N)N)NC(=O)[C@H](CC(=O)O)NC(=O)[C@H](CCCCNC(=O)COCCOCCNC(=O)COCCOCCNC(=O)CC[C@H](NC(=O)CCCCCCCCCCCCCCCCC(=O)O)C(=O)O)NC(=O)C(C)(C)NC(=O)[C@@H](NC(=O)[C@H](CO)NC(=O)[C@H](CC(C)C)NC(=O)[C@H](CC(=O)O)NC(=O)[C@H](CO)NC(=O)[C@@H](NC(=O)[C@H](Cc1ccccc1)NC(=O)[C@@H](NC(=O)CNC(=O)[C@H](CCC(=O)O)NC(=O)C(C)(C)NC(=O)[C@@H](N)Cc1ccc(O)cc1)[C@@H](C)O)[C@@H](C)CC)[C@@H](C)CC)[C@@H](C)CC)C(=O)N[C@@H](CCC(N)=O)C(=O)N[C@@H](Cc1c[nH]c2ccccc12)C(=O)N[C@@H](CC(C)C)C(=O)N[C@@H](CC(C)C)C(=O)N[C@@H](C)C(=O)N[C@@H](CCC(N)=O)C(=O)NCC(=O)N1CCC[C@H]1C(=O)N[C@@H](CO)C(=O)N[C@@H](CO)C(=O)NCC(=O)N[C@@H](C)C(=O)N1CCC[C@H]1C(=O)N1CCC[C@H]1C(=O)N1CCC[C@H]1C(=O)N[C@@H](CO)C(N)=O [SEQ ID NO: 35, H2N-Y-Aib-E-G-T-F-I-S-D-L-S-I-Aib-K[{AEEA}2-gGlu-C18OH]-DRIHQEEFIQWLLAQGPSSGAPPPS-NH2] (H-Y[Aib]EGTFISDLSI[Aib]K([AEEA-AEEA-γGlu-C18 diacid])DRIHQEEFIQWLLAQGPSSGAPPPS-NH2)	41600 ng·h/mL	5380 ng/mL	0.0918 mL/min/kg	14.5 h	49900 ng·h/mL	2010 ng/mL	14.3 h	8.3%	> 9500 µg/mL	12800 ng·h/mL	1850 ng/mL	0.325 mL/min/kg	6.19 h	21800 ng·h/mL	1400 ng/mL	6.97 h	F ([1]; sc, 0.5 mg/kg): 73%; Soluble amount ([3]; 24 h): >9.7 mg/mL; bioavailability ([4]; sc, 0.5 mg/kg): 86%
CC[C@H](C)[C@H](NC(=O)[C@H](CCC(=O)O)NC(=O)[C@H](CCC(=O)O)NC(=O)[C@H](CCCCNC(=O)COCCOCCNC(=O)COCCOCCNC(=O)CC[C@H](NC(=O)CCCCCCCCCCCCCCCCC(=O)O)C(=O)O)NC(=O)C(C)(C)NC(=O)[C@@H](NC(=O)[C@H](CO)NC(=O)[C@H](CC(C)C)NC(=O)[C@H](CC(=O)O)NC(=O)[C@H](CO)NC(=O)[C@@H](NC(=O)[C@H](Cc1ccccc1)NC(=O)[C@@H](NC(=O)CNC(=O)[C@H](CCC(=O)O)NC(=O)C(C)(C)NC(=O)[C@@H](N)Cc1ccc(O)cc1)[C@@H](C)O)[C@@H](C)CC)[C@@H](C)CC)C(=O)N[C@@H](Cc1c[nH]cn1)C(=O)N[C@@H](CCC(N)=O)C(=O)NC(C)(C)C(=O)N[C@@H](CCC(=O)O)C(=O)N[C@@H](Cc1ccccc1)C(=O)N[C@H](C(=O)N[C@@H](CCC(=O)O)C(=O)N[C@@H](Cc1c[nH]c2ccccc12)C(=O)N[C@@H](CC(C)C)C(=O)N[C@@H](CC(C)C)C(=O)N[C@@H](C)C(=O)N[C@@H](CCC(N)=O)C(=O)NCC(=O)N1CCC[C@H]1C(=O)N[C@@H](CO)C(=O)N[C@@H](CO)C(=O)NCC(=O)N[C@@H](C)C(=O)N1CCC[C@H]1C(=O)N1CCC[C@H]1C(=O)N1CCC[C@H]1C(=O)N[C@@H](CO)C(N)=O)[C@@H](C)CC [SEQ ID NO: 19, H2N-Y-Aib-E-G-T-F-I-S-D-L-S-I-Aib-K[{AEEA}2-gGlu-C18OH]-E-E-I-H-Q-Aib-E-F-I-E-W-L-L-A-Q-G-P-S-S-G-A-P-P-P-S-NH2] (H-Y[Aib]EGTFISDLSI[Aib]K([AEEA-AEEA-γGlu-C18 diacid])EEIHQ[Aib]EFIEWLLAQGPSSGAPPPS-NH2)	194000 ng·h/mL	12800 ng/mL	0.0182 mL/min/kg	19.6 h	189000 ng·h/mL	5590 ng/mL	20.1 h	4.3%	–	20800 ng·h/mL	3750 ng/mL	0.197 mL/min/kg	8.68 h	41100 ng·h/mL	2420 ng/mL	10.3 h	bioavailability ([1]; sc, 0.5 mg/kg): 54%; F ([4]; sc, 0.5 mg/kg): 101%
CC[C@H](C)[C@H](NC(=O)[C@H](CCCNC(=N)N)NC(=O)[C@H](CC(=O)O)NC(=O)[C@H](CCCCNC(=O)COCCOCCNC(=O)COCCOCCNC(=O)CC[C@H](NC(=O)CCCCCCCCCCCCCCCCC(=O)O)C(=O)O)NC(=O)C(C)(C)NC(=O)[C@@H](NC(=O)[C@H](CO)NC(=O)[C@H](CC(C)C)NC(=O)[C@H](CC(=O)O)NC(=O)[C@H](CO)NC(=O)[C@@H](NC(=O)[C@H](Cc1ccccc1)NC(=O)[C@@H](NC(=O)CNC(=O)[C@H](CCC(=O)O)NC(=O)C(C)(C)NC(=O)[C@@H](N)Cc1ccc(O)cc1)[C@@H](C)O)[C@@H](C)CC)[C@@H](C)CC)C(=O)N[C@@H](Cc1c[nH]cn1)C(=O)N[C@@H](CCC(N)=O)C(=O)NC(C)(C)C(=O)N[C@@H](CCC(=O)O)C(=O)N[C@@H](Cc1ccccc1)C(=O)N[C@H](C(=O)N[C@@H](CCC(=O)O)C(=O)N[C@@H](Cc1c[nH]c2ccccc12)C(=O)N[C@](C)(CC)C(=O)N[C@@H](CC(C)C)C(=O)N[C@@H](C)C(=O)N[C@@H](CCC(N)=O)C(=O)NCC(=O)N1CCC[C@H]1C(=O)N[C@@H](CO)C(=O)N[C@@H](CO)C(=O)NCC(=O)N[C@@H](C)C(=O)N1CCC[C@H]1C(=O)N1CCC[C@H]1C(=O)N1CCC[C@H]1C(=O)N[C@@H](CO)C(N)=O)[C@@H](C)CC [SEQ ID NO: 31, H2N-Y-Aib-E-G-T-F-I-S-D-L-S-I-Aib-K[{AEEA}2-gGlu-C18OH]-D-R-I-H-Q-Aib-E-F-I-E-W-Iva-L-A-Q-G-P-S-S-G-A-P-P-P-S-NH2] (H-Y[Aib]EGTFISDLSI[Aib]K([AEEA-AEEA-γGlu-C18 diacid])DRIHQ[Aib]EFIEW[dIva]LAQGPSSGAPPPS-NH2)	–	–	–	–	–	–	–	6.2%	–	–	–	–	–	–	–	–	Soluble amount [3]: 9.6 mg/mL; solubility ([3]; pH 7.4, Soluble amount): > 10000 µg/mL
CC[C@H](C)[C@H](NC(=O)[C@H](CCCNC(=N)N)NC(=O)[C@H](CC(=O)O)NC(=O)[C@H](CC(C)C)NC(=O)C(C)(C)NC(=O)[C@@H](NC(=O)[C@H](CO)NC(=O)[C@H](CC(C)C)NC(=O)[C@H](CC(=O)O)NC(=O)[C@H](CO)NC(=O)[C@@H](NC(=O)[C@H](Cc1ccccc1)NC(=O)[C@@H](NC(=O)CNC(=O)[C@H](CCC(=O)O)NC(=O)C(C)(C)NC(=O)[C@@H](N)Cc1ccc(O)cc1)[C@@H](C)O)[C@@H](C)CC)[C@@H](C)CC)C(=O)N[C@@H](CCCCNC(=O)COCCOCCNC(=O)COCCOCCNC(=O)CC[C@H](NC(=O)CCCCCCCCCCCCCCCCC(=O)O)C(=O)O)C(=O)N[C@@H](CCC(N)=O)C(=O)NC(C)(C)C(=O)N[C@@H](CCC(=O)O)C(=O)N[C@@H](Cc1ccccc1)C(=O)N[C@H](C(=O)N[C@@H](CCC(=O)O)C(=O)N[C@@H](Cc1c[nH]c2ccccc12)C(=O)N[C@@H](CC(C)C)C(=O)N[C@@H](CC(C)C)C(=O)N[C@@H](C)C(=O)N[C@@H](CCC(N)=O)C(=O)NCC(=O)N1CCC[C@H]1C(=O)N[C@@H](CO)C(=O)N[C@@H](CO)C(=O)NCC(=O)N[C@@H](C)C(=O)N1CCC[C@H]1C(=O)N1CCC[C@H]1C(=O)N1CCC[C@H]1C(=O)N[C@@H](CO)C(N)=O)[C@@H](C)CC [SEQ ID NO: 37, H2N-Y-Aib-E-G-T-F-I-S-D-L-S-I-Aib-L-D-R-I-K[{AEEA}2-gGlu-C18OH]-Q-Aib-E-F-I-E-W-L-L-A-Q-G-P-S-S-G-A-P-P-P-S-NH2] (H-Y[Aib]EGTFISDLSI[Aib]LDRIK([AEEA-AEEA-γGlu-C18 diacid])Q[Aib]EFIEWLLAQGPSSGAPPPS-NH2)	–	–	–	–	–	–	–	5.3%	8600 µg/mL (≈ 1740 µM)	–	–	–	–	–	–	–	–
